Several values for one entry are separate records, joined by “and”; a condition that tells them apart may be missing. Equal values may be shown once.
Test: Effect of different alkalinizing agents on the pH of an acidic solution
Format: physicochemical
Description: Various alkalinizing agents were added to a solution of 0.1 N HCl with a starting pH of 2.0 and the pH of the solution was tested at different time points.

## Cl.N=C(N)NCCC[C@H](N)C(=O)O [Arginine HCl, L-arginine-HCl]
100 mg Arginine HCl in 200 ml, time: 10,20,30,40,50,60 min
  pH of 0.1N HCl solution (starting pH 2.0): 2.20

## CNC[C@H](O)[C@@H](O)[C@H](O)[C@H](O)CO [Meglumine, meglumine]
120 mg in 200 ml, time: 10,20,30,40,50,60 min
  pH of 0.1N HCl solution (starting pH 2.0): 2.16

## CC(=O)[O-].[Na+] [Sodium Acetate, sodium acetate]
200 mg in 200 ml, time: 10,20,30,40,50,60 min
  pH of 0.1N HCl solution (starting pH 2.0): 4.96 and 5.08 and 5.21 and 5.34 and 4.73

## O=C([O-])CC(O)(CC(=O)[O-])C(=O)[O-].[Na+].[Na+].[Na+] [Sodium Citrate, sodium citrate]
930 mg in 200 ml, time: 10,20,30,40,50,60 min
  pH of 0.1N HCl solution (starting pH 2.0): 5.53

## O=C([O-])[O-].[Ca+2] [calcium carbonate]
240 mg/320 ml (0.75 mg/ml), 60 minute timecourse
  effect on the pH of the solution: rapidly raised the pH of the solution to neutral or higher
120-140 mg/200 ml, 60 minute timecourse
  effect on the pH of the solution: raise the pH of the solution to near neutral or neutral

## O=C([O-])[O-].[Mg+2] [magnesium carbonate]
80 mg in 200 ml, 30 minute timecourse
  pH reached: above 9
100 mg Magnesium Carbonate in 200 ml, time: 10,20,30,40,50,60 min
  pH of 0.1N HCl solution (starting pH 2.0): 3.05

## [Mg+2].[OH-].[OH-] [magnesium hydroxide]
60 mg in 200 ml, time by row: r6-r15=1-10 min, r16-r20=20,30,40,50,60 min
  pH of 0.1N HCl solution (starting pH 2.0): 2.96 and 2.99 and 3.00 and 3.01 and 2.50 and 2.66 and 2.83 and 2.92
60 mg per 500 mL, time by row: r8-r18=0-10 min, r19-r23=20,30,40,50,60 min
  pH of 0.1N HCl solution (starting pH 2.0): 2.12 and 2.17 and 2.18 and 2.19 and 2.01 and 2.06
71 mg/200 ml, 81 mg/200 ml and 100 mg/200 ml, 60 minute timecourse
  effect on the pH of the solution: raised the pH of the solution to neutral or higher
100 mg per 500 mL, time by row: r8-r18=0-10 min, r19-r23=20,30,40,50,60 min
  pH of 0.1N HCl solution (starting pH 2.0): 2.21 and 2.33 and 2.38 and 2.40 and 2.41 and 2.03 and 2.10
100 mg/320 ml, 180 mg/500 ml, 120 mg/320 ml, 200 mg/500 ml and 240 mg/500 ml, 60 minute timecourse
  effect on the pH of the solution: rapidly raised the pH of the solution to neutral or higher

## [O]=[Mg] [magnesium oxide]
160 mg/320 ml (0.5 mg/ml), 60 minute timecourse
  effect on the pH of the solution: rapidly raised the pH of the solution to neutral or higher
80-120 mg/200 ml powder and 80 mg granular form in 200 ml, 60 minute timecourse
  effect on the pH of the solution: rapidly raise the pH of the solution to neutral or higher

## O=C([O-])O.[Na+] [sodium bicarbonate]
20 mg per 320 mL, time by row: r6-r16=0-10 min, r17-r21=20,30,40,50,60 min
  pH of 0.1N HCl solution (starting pH 2.0): 2.05 and 2.02 and 2.04
20 mg/320 ml and 40 mg/320 ml, 60 minute timecourse
  effect on the pH of the solution: neither amount tested was sufficient to raise the pH to neutral or higher
40 mg per 320 mL, time by row: r6-r16=0-10 min, r17-r21=20,30,40,50,60 min
  pH of 0.1N HCl solution (starting pH 2.0): 2.08 and 2.09 and 2.05
50 mg in 200 ml, time by row: r6-r10=0,10,20,30,40 min
  pH of 0.1N HCl solution (starting pH 2.0): 1.72 and 1.71
100 mg in 200 ml, time by row: r6-r10=0,10,20,30,40 min
  pH of 0.1N HCl solution (starting pH 2.0): 1.75 and 1.71 and 1.76
50 and 100 mg/200 ml, 40 minute timecourse
  effect on the pH of the solution: neither tested amount was sufficient to raise the pH

## O=C([O-])[O-].[Na+].[Na+] [sodium carbonate]
11.13 mg in 200 ml, time by row: r7-r12=0-5 min, r13-r16=10,15,20,60 min
  pH of 0.1N HCl solution (starting pH 2.0): 2.80 and 2.66
30.11 mg in 200 ml, time by row: r7-r12=0-5 min, r13-r16=10,15,20,60 min
  pH of 0.1N HCl solution (starting pH 2.0): 3.25 and 3.26 and 3.27 and 2.57 and 3.21 and 3.24
81.68 mg in 200 ml, 60 minute timecourse
  effect on the pH of the solution: raise the pH of the 200 ml solution to above neutral

## CCCCCCCCCCCCOS(=O)(=O)[O-].[Na+] [sodium lauryl sulfate]
10 mg (10.22 mg actual) in 200 ml, time by row: r6-r16=0-10 min, r17=20, r18=30 min, sulfate
  pH of 0.1N HCl solution (starting pH 2.0): 2.67 and 2.68
10 mg in 200 ml, 30 minute timecourse
  effect on the pH of the solution: insufficient to substantially raise the pH
